Four molecules from ChEMBL document CHEMBL1128138, “The synthesis, and dopamine D2 and serotonin 5-HT3 receptor affinity of 3-aza analogues (pyridyl) of 4-amino-5-chloro-2-methoxybenzamides” (Bioorg Med Chem Lett, 1995) can be followed below.

The target of one test is D(2) dopamine receptor (Homo sapiens, UniProt P14416). Description: Binding affinity towards dopamine D2 receptor.
The test system of a further test is Rattus norvegicus. Description: Ability to inhibit the Bezold-Jarisch reflex by i.v. administration. The test is classed as functional. The conditions noted are these: iv, read-out: ID50 (the source's name).

Chain of D(2) dopamine receptor (P14416 whole entry): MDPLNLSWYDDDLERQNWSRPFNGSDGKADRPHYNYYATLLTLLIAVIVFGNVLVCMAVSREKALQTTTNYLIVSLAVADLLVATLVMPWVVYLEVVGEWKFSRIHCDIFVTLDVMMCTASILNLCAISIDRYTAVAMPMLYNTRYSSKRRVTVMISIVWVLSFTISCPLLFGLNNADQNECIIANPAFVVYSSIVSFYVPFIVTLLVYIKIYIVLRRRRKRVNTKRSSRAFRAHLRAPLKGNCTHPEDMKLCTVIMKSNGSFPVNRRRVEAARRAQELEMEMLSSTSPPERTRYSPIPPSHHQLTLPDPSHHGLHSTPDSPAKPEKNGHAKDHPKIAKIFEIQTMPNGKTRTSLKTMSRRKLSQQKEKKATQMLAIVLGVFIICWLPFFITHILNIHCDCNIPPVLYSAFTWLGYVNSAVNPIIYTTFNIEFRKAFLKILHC

Consider `COc1cc(N)c(Cl)cc1C(=O)NC1CC2CCCC(C1)N2Cc1ccccc1` (centres undefined), for which the affinity at D(2) dopamine receptor, expressed as Ki, was 251 pM.
On the same count and under the same terms, as for `COc1nc(N)c(Cl)cc1C(=O)NC1CC2CCCC(C1)N2Cc1ccccc1` (centres undefined), the figure is 1260 pM.
As for `COc1cc(N)c(Cl)cc1C(=O)NC1CC2CCC(C1)N2C` (centres undefined), in the test with Rattus norvegicus, the ED50 came to 0.8 µg/kg.
On the same count and under the same terms, to `COc1cc(N)c(Cl)cc1C(=O)NC1CC2CCCC(C1)N2C` (centres undefined) belongs 0.4 µg/kg.
